{"source": "patent US12383535B2", "about": "“Hydrogen peroxide-responsive KEAP1-NRF2 ppi inhibitor prodrug, and preparation method therefor” (CHINA PHARMACEUTICAL UNIVERSITY, priority 2019, dated 2025)", "key": {"C57BL/6 mice": {"tested_on": "C57BL/6 mice", "test": "LPS-induced mouse acute inflammation model", "type": "in vivo", "details": "LPS 300 μg/kg mice", "method": "Female C57BL/6 mice (6-8 weeks old, 18-20 g in weight) were acclimatized with drinking water for 2 days, and were randomized to eight groups: (A) control group (n=3); (B) LPS (Sigma-Aldrich, St. Louis, No. L4130) model group (300 μg/kg/day, n=8); (C) LPS (300 μg/kg/day)+pro2 low-dose (10 mg/kg/day) group (n=8); (D) LPS (300 μg/kg/day)+pro2 high-dose (40 mg/kg/day) group (n=8); (E) LPS (300 μg/kg/day)+active parent compound 2 high-dose (40 mg/kg/day) group (n=8); (F) LPS (300 μg/kg/day)+dexamethasone low-dose (10 mg/kg/day) group (n=8); (G) pro2 high-dose (40 mg/kg/day) group (n=3); and (H) active parent compound 2 high-dose (40 mg/kg/day) group (n=3). Animals of groups A, G and H were given IP injections of 500 μL of normal saline each time (on days −3, −2 and −1). All LPS-stimulated mice were IP-injected with 500 μL of LPS (on days −3, −2 and −1), and 4 h after the injection the mice were given corresponding compound treatment (on days −3, −2 and −1). Animals were sacrificed (day 0) 24 h after the last dose of the compound to collect the serum, and the levels of cytokine IL-1β, IL-6, TNF-α and IFN-γ in the serum were determined by ELISA."}, "RAW264.7 cells": {"tested_on": "RAW264.7 cells", "test": "IL-1β, IL-6, TNF-α and NO assays in cell culture supernatant", "type": "cell-based, mouse", "method": "IL-1β (IL-1β (m) ELISA kit, EK0394, Boster), IL-18 (IL-18 (m) ELISA kit, EMC011, NeoBioscience), IL-6 (IL-6 (m) ELISA kit EK0411, Boster), TNF-α (TNF-α (m) ELISA kit, EK0527, Boster) and NO (nitrate/nitrite assay kit, S0023, Beyotime, China) were tested using commercially available kits according to the manufacturer's instructions.\nThen, several inflammatory mediators closely related to ROS, including IL-1β, IL-6, TNF-α and NO, were further evaluated."}, "[1]": {"tested_on": "Nrf2-ARE-driven gene transcription in RAW264.7 cells", "test": "Real-time quantitative PCR of Nrf2, HO-1, NQO1 and GCLM", "type": "cell-based, mouse", "details": "20 ng/mL LPS 8 h, compound 500 nM", "method": "The procedures were performed according to the real-time quantitative RT-PCR experimental procedures reported previously (Z. Jiang, M. Lu, Q. D. You, Discovery and Development of Kelch-like ECH-Associated Protein 1: Nuclear Factor Erythroid 2-Related Factor 2 (KEAP1:NRF2) Protein-Protein Interaction Inhibitors: Achievements, Challenges and Future Directions, J. Med. Chem., 59 (2016) 10837-10858). The primers used for qRT-PCR were as follows: Nrf2 (forward primer: AACCACCCTGAAAGCACGC, reverse primer: […]); HO-1 (forward primer: […], reverse primer: […]); NQO-1 (forward primer: CGCAGACCTT-GTGATATTCCAG, reverse primer: […]); GCLM (forward primer: […], reverse primer: […]).\n(§1) To determine the effect of pro2 on Nrf2-ARE-driven gene transcription, mRNA levels of Nrf2 and three downstream genes, HO-1, NQO1 and GCLM, were examined ((A) of FIG. 4 to (D) of FIG. 4). […] The protein levels of the above genes were determined by western blot."}, "[2]": {"tested_on": "IL-1β and IL-6 mRNA in RAW264.7 cells", "test": "Real-time quantitative PCR of IL-1β and IL-6", "type": "cell-based, mouse", "details": "20 ng/mL LPS 8 h"}, "[3]": {"tested_on": "Nrf2 and downstream antioxidant enzyme in RAW264.7 cells", "test": "Western blot of Nrf2 targeting proteins", "type": "cell-based, mouse", "details": "LPS, same concentration", "method": "Anti-Nrf2 (ab62352) and anti-IL-1β (ab45692) antibodies were purchased from Abcam Technology (England). Anti-HO-1 (SC-136960) and anti-NQO1 (SC-271116) antibodies were purchased from Santa Cruz Biotechnology (California, USA). Anti-β-Actin (60008-1-Ig) and anti-GCLM (14241-1-AP) antibodies were purchased from Proteintech Group (USA). Cell sampling and western blot were performed as previously reported (M.-C. Lu, J.-A. Ji, Y.-L. Jiang, Z.-Y. Chen, Z.-W. Yuan, Q.-D. You, Z.-Y. Jiang, An inhibitor of the Keap1-Nrf2 protein-protein interaction protects NCM460 colonic cells and alleviates experimental colitis, Sci. Rep., 6 (2016) 26585).\nas §1"}, "[4]": {"test": "Aqueous solubility (pSOL)", "type": "physicochemical", "method": "(§2) Through Avdeef-Bucher potentiometric titration, pKa and partition coefficients (log D, pH 7.4) were determined on a Gemini Profiler instrument (pION) according to the method of Avdeef and Tsinman. pH measurements were used to determine the intrinsic solubility.\nPotential solubility data were obtained with a pSOL model 3 instrument (pION INC, Cambridge, Massachusetts, USA). Cell membrane permeability was determined on a PAMPA Explorer instrument (pION)."}, "[5]": {"test": "Stability in artificial gastric and intestinal fluids (SGF, SIF)", "type": "physicochemical", "details": "after 8 h", "method": "(4) Stability in artificial gastric and intestinal fluids. Artificial gastric and intestinal fluids were purchased from commercial suppliers. Samples of prodrug (20 μM) were incubated in triplicate with artificial gastric or intestinal fluids at 37° C. for different periods of time. The enzyme protein was precipitated by adding methanol, and the samples were vortexed and then centrifuged at 5000 rpm for 5 min. The supernatants of the samples were analyzed by HPLC and the peak areas were recorded. All chromatographic conditions were as described above."}, "[6]": {"test": "pKa and log D by Avdeef-Bucher potentiometric titration", "type": "physicochemical", "method": "as §2"}, "[7]": {"tested_on": "Nrf2-ARE in RAW264.7 cells", "test": "ARE inductivity under LPS stimulation", "type": "cell-based, mouse"}}, "data": [{"compound": "COc1ccc(S(=O)(=O)Nc2ccc(N(CC(=O)N3CCSC3=O)S(=O)(=O)c3ccc(OC)cc3)c3ccccc23)cc1", "note": "[pro2]", "values": [{"measurement": "anti-inflammatory effect (serum IL-1β, IL-6, TNF-α, IFN-γ)", "setting": "C57BL/6 mice; compound 10 mg/kg", "value": "comparable therapeutic effect to dexamethasone"}, {"measurement": "anti-inflammatory effect (serum IL-1β, IL-6, TNF-α, IFN-γ)", "setting": "C57BL/6 mice; compound high dose 40 mg/kg, oral", "value": "stronger effect"}, {"measurement": "production of IL-1β, IL-6 and TNF-α in supernatant", "setting": "RAW264.7 cells; LPS-treated RAW264.7 cell culture", "value": "significant advantages in inhibiting production"}, {"measurement": "EC50", "setting": "RAW264.7 cells; Mus musculus, LPS-stimulated RAW264.7 cells, read-out: EC50 for reduction of extracellular NO concentration", "value": 120, "unit": "nM"}, {"measurement": "transcription of Nrf2, HO-1, NQO1 and GCLM (mRNA)", "setting": "[1]", "value": "greatly enhanced the transcription"}, {"measurement": "mRNA transcription of IL-1β and IL-6", "setting": "[2]", "value": "significantly inhibit the induction by pro-inflammatory genes"}, {"measurement": "protein levels of Nrf2 and downstream antioxidant enzyme", "setting": "[3]", "value": "significantly increased levels of Nrf2 and downstream antioxidant enzyme"}, {"measurement": "Aqueous solubility at pH 7.4", "setting": "[4]", "value": 879.6, "unit": "μg/mL"}, {"measurement": "remaining in simulated gastric fluid (SGF)", "setting": "[5]; SGF", "value": "> 50", "unit": "%"}, {"measurement": "remaining in simulated intestinal fluid (SIF)", "setting": "[5]; SIF", "value": "> 50", "unit": "%"}, {"measurement": "pKa", "setting": "[6]", "value": 4.53}, {"measurement": "LogD at pH 7.4", "setting": "[6]; pH 7.4", "value": 2.34}, {"measurement": "EC50", "setting": "[7]; Mus musculus, RAW264.7, under LPS stimulation, read-out: EC50 of ARE inductivity", "value": 320, "unit": "nM"}, {"measurement": "inductivity of Nrf2-ARE at different concentrations of LPS", "setting": "[7]; RAW264.7 cells stimulated with LPS prior to administration, compound 200 nM", "value": "LPS concentration-dependent increase"}]}]}
